Data from patent EP4644377A1, “LIPID COMPOUND FOR GENE DELIVERY AND LIPID NANOPARTICLE COMPRISING SAME” (NANJING CYBERNAX BIOMEDICAL TECHNOLOGY CO., LTD., priority 2022, dated 2024).

What was measured:
[1] = system: enhanced green fluorescent protein (EGFP) gene; assay: LNP delivery of gene editing system (spCas9 mRNA + sgGFP), GFP knockout by flow cytometry; type: cell-based; details: HEK 293/eGFP-aavs1 cells, 200 ng total RNA per well, 48 h, average
Procedure: LNPs were prepared by using a composition ratio in formulation 2 and simultaneously coating spCas9 mRNA and sgRNA (sgGFP sequence: […]) with lipid 284, wherein N/P was 6, and a mass ratio of mRNA to sgRNA was 3/1. By DLS detection, the particle size of LNP was about 130 nm, PDI was 0.15, and the RNA encapsulation efficiency was greater than 95%. An HEK 293/eGFP-aavs1 stable cell line stably expressing a green fluorescence protein (GFP) was inoculated into a 96-well cell culture plate at a density of 40,000 cells per well. After incubation for 24 h, LNPs containing 200 ng of total RNA were added into each well, cells were collected after 48 h and the knockout efficiency cells of GFP were detected on a flow cytometer.

[2] = Particle size detection of LNP (Brookhaven NanoBrook Omni, DLS); type: physicochemical
Procedure: Step 1. Preparation of a lipid solution and a nucleic acid solution: unless otherwise specified, all aqueous solutions involved in examples were prepared from deionized water without nucleases. An ionizable lipid, a phospholipid (disaturated phosphatidylcholine (DSPC) or dioleoylphosphatidylethanolamine (DOPE)), cholesterol and a PEG lipid (DMG-PEG2000) were mixed in a molar ratio of 50/10/38.5/1.5 (containing DSPC, formulation 1) or 36.5/16/46.5/2.5 (containing DOPE, formulation 2) and dissolved into an ethanol solution. Meanwhile, a nucleic acid (a mass ratio of ionizable lipid/nucleic acid was 10/1) was dissolved into a citrate buffer solution of pH=3, so that a final volume ratio of the ethanol solution to the citrate solution was 1/3.
Step 2. Preparation of LNP by mixing the lipid solution with the nucleic acid solution: the lipid ethanol solution and the nucleic acid aqueous solution that were prepared in Step 1 were respectively put into a sterile syringe and placed in a Precision Nanosystem Ignite instrument, the extrusion flow speeds of the ethanol solution and the water phase solution were respectively set as 3 ml/min and 9 ml/min in instrument program settings. A microfluidic chip was inserted into the instrument and LNP preparation was initiated, and then a solution mixed by the chip was collected.
Step 2.1. Preparation of an LNP solution coating nucleic acid in a porous plate: a solution of an ionizable lipid, a phospholipid (DSPC or DOPE), cholesterol and a PEG lipid (DMG-PEG2000) in ethanol was added into each well of a 96-well deep plate, so that a molar ratio of four component lipids in each well was 50/10/38.5/1.5 (containing DSPC, formulation 1) or 36.5/16/46.5/2.5 (containing DOPE, formulation 2). Then, a citrate buffer solution (pH=3, the mass of nucleic acid added into each well was 1/10 that of the ionizable lipid in this well) that was three times as ethanol in volume and dissolved with a nucleic acid molecule was quickly added into the well plate through a multi-channel pipette or an automatic liquid dispensing system and rapidly mixed, so as to obtain the LNP solution coating nucleic acid.
Step 3. Purification of the LNP solution: the LNP solution collected in Step 2 or Step 2.1 was subjected to dialysis-concentration-filtration operations, so as to obtain a final LNP solution coating nucleic acid for subsequent testing.
The LNP solution coating nucleic acid obtained in Step 3 was diluted so that the final lipid concentration was between 0.01 mg/ml and 0.1 mg/ml. The diluted solution was added into a sample reservoir, and then subjected to particle size detection in a Brookhaven NanoBrook Omni instrument.

C57Bl/6 mice = assay: Luciferase mRNA delivery in mice, IVIS chemiluminescence; type: in vivo
Procedure: The animal experiments were reviewed and approved by the Ethics Committee of Zhejiang Medical College and the Ethics Committee of Zhejiang University of Technology. 6- to 8-week-old male C57Bl/6 mice were randomly grouped with 3 mice in each group. The mice in each group received a lipid nanoparticle coating mRNA expressing a luciferase via tail vein injection at a dose of 0.25 mg/kg mouse body weight (calculated by the mass of coated mRNA). […] The mRNA delivery effect of the lipid nanoparticle is quantitatively compared through a total chemiluminiscence quantity (Total Flux p/s) of a mouse whole body within unit time (shown in Table 5).
Table 13 and Table 14 show whole body chemiluminescent signals when LNPs (formulation 2) composed of the lipids in some examples deliver Flue mRNA in mice. The delivery dose of Flue mRNA was 0.25 mg/kg. 6 h after LNP injection, 150 mg/kg of D-luciferin was intraperitoneally injected into the mice, and then the whole body chemiluminescent signals were collected in the IVIS imaging system after 10 min. […]

293T cells [3] = assay: In vitro eGFP plasmid DNA transfection; type: cell-based; details: 100 ng plasmid DNA per well, 48 h, fluorescence microscope, versus lipofectamine 3000
Procedure: 293T cells were inoculated into a 96-well cell culture plate at a density of 40,000 cells per well, LNPs prepared from lipid 284 and lipid 424 was used to coat plasmid DNA expressing eGFP, lipofectamine 3000 was used as a control group, 100 ng of plasmid DNA coated by the above vehicle was given to cells per well, the expression of eGFP was observed through a fluorescence microscope after co-culture for 48 h.

[4] = Determination of total nucleic acid and encapsulation efficiency (Quant-iT RiboGreen RNA kit); type: physicochemical
Procedure: The content of nucleic acids in an LNP sample was determined through a Quant-iT™ RiboGreen® RNA detection kit (Thermofisher). The detection of total RNA concentration: 5 µl of to-be-detected sample was placed into 2 ml of ep tube, 245 µl of 1xTE Buffer was added, and the above materials were evenly mixed to obtain a "diluted sample". 100 µl of the above "diluted sample" was taken, 100 µl of 10% TritonX-100 solution was added, the above materials were sufficiently and evenly mixed, and then the obtained mixture was demulsified for 15 min in metal bath under the conditions of 37°C and 300 rpm; and 80 µl of 1xTE Buffer was added into an ELISA plate, 20 µl of demulsified sample was taken and added into the ELISA plate to be evenly mixed, and then 100 µl of fluorescence dye (2000-fold dilution) solution was added.
Detection of free RNA concentration: 90 µl of 1xTE Buffer was added into the ELISA plate, 10 µl of the above "diluted sample" was taken, and 100 µl of fluorescence dye (2000-fold dilution) solution was added.
Meanwhile, a series of standard solutions having different concentrations were set in the ELISA plate as quantitative standard curves. The samples were loaded onto the ELISA plate to detect fluorescence signals (with an excitation wavelength of 480 nm and an emission detection wavelength of 520). A corresponding RNA concentration was obtained after the fluorescence signal in each well was converted via the standard curve.
Calculation method of encapsulation efficiency: EE(%) = (Concentration of total mRNA−concentration of free mRNA)/(Concentration of total mRNA)∗100% [formula]

293T cells [5] = assay: In vitro delivery of luciferase mRNA by LNPs, 293T cells; type: cell-based, Human; details: 100 ng luciferase mRNA per well, 24 h; ratio to naked mRNA control; result in words
Procedure: (§1) Human embryonic kidney cells (293T cells) and human non-small cell lung cancer cell lines (A549 cells) were obtained from the Chinese Type Culture Collection Center and cultured in DMEM high glucose culture medium containing 10% fetal bovine serum under the environment of 37°C and 5% CO2. The cells were inoculated in a 96-well cell culture plate in a density of 32,000 cells per well. LNPs coating mRNA expressing luciferase (Trilink, USA) were taken and added into the wells at a dose of 100 ng of mRNA per well. Meanwhile, control wells were set on each culture plate, and 100 ng of naked mRNA that was not coated by LNPs was added into each well. The cell culture plate was placed in a cell incubator for 24 h of co-culture under the conditions of 37°C and 5% CO2, and then the transfection effect of mRNA was detected through a One-LumiTM firefly luciferase reporter gene detection kit. The transfection results of LNPs in 293T cells are shown in FIG. 1 to FIG. 6 and FIG. 13 (upper), and the transfection results of LNPs in A549 cells are shown in FIG. 7 to FIG. 12 and FIG. 13 (lower). The transfection efficiency is expressed as a ratio of chemiluminescent intensity of LNP group to chemiluminescent intensity of control group (direct delivery of naked luciferase mRNA that is not coated by LNP).

A549 cells = assay: In vitro delivery of luciferase mRNA by LNPs, A549 cells; type: cell-based, human; details: 100 ng luciferase mRNA per well, 24 h; ratio to naked mRNA control; result in words
Procedure: as §1

[6] = system: respiratory syncytial virus (RSV); assay: RSV mRNA vaccine in mice, RSV true virus neutralizing antibody titers; type: in vivo, BALB/c mice; details: 10 µg per mouse i.m., two immunizations three weeks apart, serum 14 days after the second; result in words versus antigen protein or SM102
Procedure: An RSV antigen mRNA sequence with a pre-fusion F protein conformation was prepared by a cap analogue co-transcription method, the sequence information is as shown in sequence 1 (SEQ ID NO: 1), and the amino acid sequence of the expressed antigen protein is as shown in sequence 2 (SEQ ID NO: 2). LNPs containing RSV-mRNA were prepared by respectively using lipid 174 and sm102 in a lipid ratio of formulation 1, wherein N/P was 6. The particle sizes and mRNA encapsulation efficiency data of two LNPs are as follows: lipid 174 has a particle size of 77.6 nm and an encapsulation efficiency of 96.2%; and sm102 has a particle size of 96.1 nm and an encapsulation efficiency of 97.9%. The LNP preparation encapsulating RSV mRNA and an F protein antigen with a pre-fusion conformation were intramuscularly administrated to BALB/c mice at a dose of 10 µg per mouse, with immunization once every three weeks for two immunizations in total. 14 days after secondary immunization, mouse serum was collected and submitted to CRO for detection of RSV true virus neutralizing antibody titers.

[7] = formulation 2, spCas9 mRNA and sgRNA 3/1, N/P 6, DLS
[8] = LNP formulation 2 (SM102: formulation 1), luciferase mRNA 0.25 mg/kg, tail vein, C57Bl/6 mice, whole body signal 6 h after LNP, 10 min after D-luciferin 150 mg/kg i.p.
[9] = LNPs after coating mRNA (luciferase)
[10] = LNP with RSV-mRNA, lipid ratio of formulation 1, N/P 6

Structure (SMILES)	cells with significant knockdown of GFP expression [1] [%]	PDI [2, 7]	particle size of LNP [2, 7]	Chemiluminescent signal (p/s) (C57Bl/6 mice; [8])	eGFP expression (delivery efficiency and positive cell ratio) (293T cells [3])	RNA encapsulation efficiency ([4]; formulation 2, spCas9 mRNA and sgRNA 3/1, N/P 6)	PDI [2, 9]	Particle size [2, 9] [nm·days]	Chemiluminescent signal (p/s) (C57Bl/6 mice; LNPs (formulation 2), Flue mRNA 0.25 mg/kg, tail vein injection, whole body signal 6 h after LNP injection, 10 min after 150 mg/kg D-luciferin i.p.) [E+ 10 p/s]	transfection (delivery) efficiency of LNP in 293T cells (293T cells [5])	Particle size [2, 10] [nm]	transfection (delivery) efficiency of LNP in A549 cells (A549 cells)	encapsulation efficiency [4, 10] [%]	RSV true virus neutralizing antibody titer [6]
CCCCCCCCCCCCCC(=O)N(CCCN(C)C)C(C(=O)NCCCCCCOC(=O)C(CCCCCC)CCCCCCCC)C(C)(C)C (stereo not drawn) [Lipid 284]	41.2	0.15	about 130 nm	2.42E+10	delivery efficiencies and positive cell ratios exceed those in control group lipofectamine3000	greater than 95%								
CCCCCCCCC(CCCCCC)C(=O)OCCCCCCNC(=O)C(N(CCCN(C)C)C(=O)CCCCCCC(=O)OCC(C)CCCCCCC)C(C)(C)C (stereo not drawn) [Lipid 424]					delivery efficiencies and positive cell ratios exceed those in control group lipofectamine3000		0.11	153 ± 2.11	8.40					
CCCCCCCCCCCCCC(=O)N(CCCN(C)C)C(C(=O)NCCCCCCCC(=O)OC(CCCCCCCC)CCCCCCCC)C(C)(C)C (stereo not drawn) [Lipid 174]				3.15E+09			0.17	202.44 ± 2.28		relatively high delivery efficiency	77.6	relatively high delivery efficiency	96.2	can efficiently stimulate the mouse to generate a neutralizing antibody targeting RSV
